Values joined by “and” are separate entries in the source; they are usually repeats but may differ in a detail not shown here. Equal entries are not always repeated.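 Compound exposure: 48 hours, 5 concentrations, 96-well plates. GI50 marks 50% less growth. Definition used: TGI = concentration required for complete inhibition of growth.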 *1 amine or outer side, *2 acyl side, *3 side chain or, on linkers, in order; H or OH if unused. Where a SMILES comes first, the peptide text is derived from it. CO = O=C([*:1])[*:2]
Key:
Experiment in all cases: NCI tumour cell line growth inhibition, 48 h
[1] = tested on: HOP-62 NSCLC
[2] = tested on: 786-0 renal
[3] = tested on: COLO 205 colon
[4] = tested on: MDA-MB-435
[5] = tested on: SF-295 CNS
[6] = tested on: SR leukemia
[7] = tested on: BT-549 breast
[8] = tested on: PC-3 prostate
[9] = tested on: LOX IMVI melanoma
[10] = tested on: TK-10 renal

SMILES | GI50 [1] | TGI [1] | GI50 [2] | TGI [2] | GI50 [3] | TGI [3] | GI50 [4] | TGI [4] | GI50 [5] | TGI [5] | GI50 [6] | TGI [6] | GI50 [7] | TGI [7] | GI50 [8] | TGI [8] | GI50 [9] | TGI [9] | TGI [10] | GI50 [10]
Fc1ccc(Nc2ccc3cc(OCCCN4CCOCC4)ccc3n2)cc1F | 4.54 µM | 45.9 µM | 2.15 µM | 4.68 µM | 1.96 µM | 3.84 µM | 3.26 µM | 68 µM | 1.89 µM | 4.3 µM | 2.03 µM | 32.8 µM | 7.28 µM | 52.1 µM | 4.29 µM | 50 µM | 1.6 µM | 3.09 µM | – | –
C/C=C/C/C=C/CCC(=O)C1OC1C(N)=O (centres undefined) | – | 15.8 µM | – | 25.8 µM | – | 33.5 µM | – | 28.3 µM | – | 30 µM | – | 50.5 µM | – | 24.6 µM | – | 28.7 µM | – | 26.6 µM | 25.9 µM | –
O=C(/C=C/C12c3ccccc3C(c3ccccc31)C1C(=O)NC(=O)C12)c1ccco1 (centres undefined) | 2.7 µM | 6.99 µM | 3.28 µM | 10.8 µM | 3.27 µM | 9.32 µM | 2.35 µM | 5.84 µM | 3.33 µM | 11.6 µM | – | – | 2.89 µM | 7.53 µM | 1.74 µM | 5 µM | 1.85 µM | 3.76 µM | 10.9 µM | 3.7 µM
O=c1[nH]cnc2c1nnn2[C@@H]1O[C@H](CO)[C@@H](O)[C@H]1O | 9.22 µM | > 100 µM | 3.83 µM | > 100 µM | 3.16 µM | 20.6 µM | 6.26 µM | > 100 µM | – | – | 4.77 µM | > 100 µM | 9.81 µM | > 100 µM | 2.77 µM | > 100 µM | 2.14 µM | > 100 µM | > 100 µM | 9.1 µM
CC1=Cc2cc3[n-]c(cc4nc(cc5[n-]c(cc1n2)c(C)c5CCC(=O)O)C(CCC(=O)O)=C4C)cc3C.[Cu+2] | > 1 µM and 20.8 µM | > 1 µM and 59.1 µM | > 1 µM and 21.1 µM | > 1 µM and 54.5 µM | > 1 µM and 40.7 µM | > 100 µM | 55.1 µM | > 100 µM | 51.3 µM | > 96.9 µM | > 1 µM and 45.1 µM | > 75.7 µM | 14.5 µM | 27.8 µM | 12.9 µM | 29.5 µM | 28.1 µM | > 65.3 µM | > 1 µM and 38.3 µM | > 1 µM and 17.6 µM
Cc1cc(Nc2nc(N3CCOCC3)nc3ccccc23)n[nH]1 | 6.22 µM | > 100 µM | 3.91 µM | 26.1 µM | 3.09 µM | 11.9 µM | 4.03 µM | > 100 µM | 6.19 µM | 74.4 µM | 3.65 µM | 28.1 µM | 7.88 µM | 46.7 µM | – | – | 4.35 µM | 21.2 µM | 37.3 µM | 1.52 µM
Cc1cc2c(cc1C)[n+](=O)c(C(=O)c1cccs1)c(C(F)(F)F)n2[O-] | 14.6 µM and 2.68 µM | 50 µM | 23 µM and 6.76 µM | 50 µM and 24.5 µM | 5.36 µM and 4.94 µM | 41.1 µM and 22.6 µM | 4.45 µM and 4.89 µM | 16 µM and 21.4 µM | 0.603 µM and 2.89 µM | 3.34 µM and 12.9 µM | 0.924 µM | 8.11 µM | 0.565 µM | 2.53 µM | 0.827 µM and 7.09 µM | – | – | 12.3 µM and 13.2 µM | – | –
COc1ccc2c(c1)C(=O)c1c-2c(N2CCN(C(=O)CN(C)C)CC2)nc2ccccc12 | 13.6 µM | 29.2 µM | 14.4 µM | 33.7 µM | 13.3 µM | 28.1 µM | 30.2 µM | 98 µM | 13.7 µM | 41 µM | – | – | 14.5 µM | 33.5 µM | 14.4 µM | 31.5 µM | 12.3 µM | 33.6 µM | 37.6 µM | 14.1 µM
Cc1ccc(-c2nc3nc(-c4ccc(Cl)cc4)nc(N4CCCNCC4)c3o2)cc1 | 1.76 µM | 3.64 µM | 1.86 µM | 3.54 µM | 2.08 µM | 4.26 µM | 1.81 µM | 3.25 µM | 1.82 µM | 3.39 µM | – | – | 1.9 µM | 3.61 µM | 1.6 µM | 3.14 µM | 1.63 µM | 3.15 µM | 3.33 µM | 1.78 µM
CC(C)C(NC(=O)C(CCCN=C(N)N)NC(=O)NC(Cc1ccccc1)C(=O)O)C(=O)NC(C=O)CCCN=C(N)N (stereo not drawn) ({Phe-CO}-Arg-Val-Arg-aldehyde; configuration not given here) | > 5 µM | > 5 µM | > 5 µM | > 5 µM | > 5 µM | > 5 µM | > 5 µM | > 5 µM | > 5 µM | > 5 µM | – | – | > 5 µM | > 5 µM | > 5 µM | > 5 µM | > 5 µM | > 5 µM | > 5 µM | > 5 µM
N#C/C(=C\c1ccc(Br)cc1)n1nnc2cc(F)c(F)cc21 | 1.93 µM | 4.27 µM | 1.67 µM | 3.18 µM | 1.99 µM | 4.04 µM | 1.38 µM | 3.23 µM | 1.58 µM | 3.27 µM | – | – | 1.74 µM | 4.51 µM | 1.8 µM | 3.81 µM | 1.55 µM | 2.98 µM | 5.56 µM | 2.16 µM
O=C(Nc1nc(-c2ccc(Cl)cc2)cs1)c1ccc(O)c(O)c1 | 4.68 µM | 17.6 µM | 4.07 µM | 15.3 µM | 11.4 µM | 26.5 µM | 3.18 µM | 14.4 µM | 11.5 µM | 26.2 µM | 2.09 µM | 9.26 µM | 3.49 µM | 17.9 µM | – | – | 4.26 µM | 15.7 µM | 9.98 µM | 2.87 µM
Cc1cccc(Oc2ccc(Nc3ncnc4ccc(NC(=O)CN5CCN(C)CC5)cc34)cc2Cl)c1 | – | – | 1.59 µM | 2.99 µM | – | – | 1.59 µM | 2.99 µM | 1.83 µM | 3.39 µM | 1.72 µM | 5.32 µM | 1.45 µM | 2.81 µM | 1.78 µM | 3.52 µM | 1.7 µM | 3.18 µM | 2.24 µM | 0.701 µM

From PubChem BioAssay (NCI)
